Data: publication PMC6987092, “Characterization and diversity of the complete set of GH family 3 enzymes from Rhodothermus marinus DSM 4253” (Scientific Reports, 2020)

Key:
Assay in all cases: pNP release at […] nm
Type in all cases: biochemical
Conditions in all cases: 20 mM citrate phosphate pH 5.6, 60 °C
RmXyl3A = molecular target: T1, RmXyl3A (Rhodothermus marinus, UniProt D0MHL4)
T1 construct: gene Rmar_1080; locus tag is that of the type strain DSM 4252T homolog, gene cloned from DSM 4253
T1 sequence (D0MHL4 19-792): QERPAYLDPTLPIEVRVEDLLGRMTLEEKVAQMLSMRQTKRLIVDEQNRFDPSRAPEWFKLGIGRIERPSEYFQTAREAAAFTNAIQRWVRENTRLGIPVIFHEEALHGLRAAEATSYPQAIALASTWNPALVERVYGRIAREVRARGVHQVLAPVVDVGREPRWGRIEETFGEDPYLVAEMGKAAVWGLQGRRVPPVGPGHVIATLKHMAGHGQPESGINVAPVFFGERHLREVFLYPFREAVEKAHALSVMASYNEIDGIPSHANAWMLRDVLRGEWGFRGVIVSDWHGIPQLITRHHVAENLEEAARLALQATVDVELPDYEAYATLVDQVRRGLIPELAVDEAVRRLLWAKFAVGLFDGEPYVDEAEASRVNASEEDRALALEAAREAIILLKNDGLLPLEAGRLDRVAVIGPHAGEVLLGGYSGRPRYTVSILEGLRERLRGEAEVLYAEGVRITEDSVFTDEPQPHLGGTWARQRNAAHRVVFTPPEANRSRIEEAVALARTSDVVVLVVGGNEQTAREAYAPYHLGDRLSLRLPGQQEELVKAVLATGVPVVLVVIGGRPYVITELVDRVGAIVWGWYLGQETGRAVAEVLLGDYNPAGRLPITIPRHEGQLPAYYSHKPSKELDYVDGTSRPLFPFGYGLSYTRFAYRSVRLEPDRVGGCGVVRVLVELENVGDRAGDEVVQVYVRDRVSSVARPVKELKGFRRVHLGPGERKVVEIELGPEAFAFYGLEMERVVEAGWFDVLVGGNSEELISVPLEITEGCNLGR

RmXyl3B = molecular target: T2, RmXyl3B (Rhodothermus marinus, UniProt D0MHL5)
T2 construct: gene Rmar_1081; locus tag is that of the type strain DSM 4252T homolog, gene cloned from DSM 4253

RmBgl3B = molecular target: T3, RmBgl3B (Rhodothermus marinus, UniProt D0MD38)
T3 construct: gene Rmar_2069; recombinant in E. coli BL21 C43 (pET-21b(+)), signal peptide removed, C-terminal His-tag; locus tag is that of the type strain DSM 4252T homolog, gene cloned from DSM 4253
T3 sequence (D0MD38 21-839): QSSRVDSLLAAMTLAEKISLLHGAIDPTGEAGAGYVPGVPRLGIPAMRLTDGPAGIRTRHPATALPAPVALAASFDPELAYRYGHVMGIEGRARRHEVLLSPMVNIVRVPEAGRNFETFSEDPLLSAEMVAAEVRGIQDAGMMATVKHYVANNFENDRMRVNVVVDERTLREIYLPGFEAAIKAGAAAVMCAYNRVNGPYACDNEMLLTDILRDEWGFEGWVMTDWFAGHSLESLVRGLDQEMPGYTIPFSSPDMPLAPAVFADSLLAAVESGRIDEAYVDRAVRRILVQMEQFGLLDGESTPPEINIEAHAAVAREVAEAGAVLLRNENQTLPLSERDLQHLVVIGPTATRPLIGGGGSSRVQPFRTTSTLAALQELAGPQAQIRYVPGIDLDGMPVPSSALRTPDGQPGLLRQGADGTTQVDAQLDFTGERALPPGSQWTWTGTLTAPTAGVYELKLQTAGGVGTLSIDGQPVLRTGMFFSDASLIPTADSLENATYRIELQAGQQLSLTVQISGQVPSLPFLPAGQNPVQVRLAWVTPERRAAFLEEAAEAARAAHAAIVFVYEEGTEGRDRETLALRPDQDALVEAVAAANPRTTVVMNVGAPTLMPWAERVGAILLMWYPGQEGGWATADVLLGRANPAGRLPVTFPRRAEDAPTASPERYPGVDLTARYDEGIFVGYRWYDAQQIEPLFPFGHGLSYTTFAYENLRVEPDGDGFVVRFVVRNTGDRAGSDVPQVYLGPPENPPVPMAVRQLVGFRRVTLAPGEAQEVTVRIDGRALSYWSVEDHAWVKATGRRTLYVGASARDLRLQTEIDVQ

T2 sequence (D0MHL5 entry or part of it): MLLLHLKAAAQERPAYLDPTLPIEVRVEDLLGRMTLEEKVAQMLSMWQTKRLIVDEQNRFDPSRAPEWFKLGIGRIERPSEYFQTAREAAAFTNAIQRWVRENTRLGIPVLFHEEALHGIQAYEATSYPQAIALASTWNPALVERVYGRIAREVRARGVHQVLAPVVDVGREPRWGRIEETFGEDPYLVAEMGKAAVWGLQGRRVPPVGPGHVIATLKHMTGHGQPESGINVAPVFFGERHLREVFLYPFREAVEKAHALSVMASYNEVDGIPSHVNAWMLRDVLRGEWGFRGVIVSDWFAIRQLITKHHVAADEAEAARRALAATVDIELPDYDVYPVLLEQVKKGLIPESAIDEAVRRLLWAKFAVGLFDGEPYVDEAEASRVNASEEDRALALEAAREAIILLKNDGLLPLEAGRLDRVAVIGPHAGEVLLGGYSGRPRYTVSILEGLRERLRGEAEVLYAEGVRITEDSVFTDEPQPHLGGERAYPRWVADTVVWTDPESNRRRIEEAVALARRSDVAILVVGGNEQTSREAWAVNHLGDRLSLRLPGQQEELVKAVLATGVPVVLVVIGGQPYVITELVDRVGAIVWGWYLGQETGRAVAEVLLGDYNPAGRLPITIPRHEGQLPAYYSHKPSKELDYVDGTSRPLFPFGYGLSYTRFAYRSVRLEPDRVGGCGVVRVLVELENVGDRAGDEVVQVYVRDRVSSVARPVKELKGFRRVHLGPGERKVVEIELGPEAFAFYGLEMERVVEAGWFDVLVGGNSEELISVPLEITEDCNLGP

pNP-α-L-Ara
Km (RmXyl3A): 8800 ± 1000 µM
Km (RmXyl3B): 2000 ± 200 µM
Km (RmBgl3B): 1900 ± 100 µM
